{"source": "ChEMBL document CHEMBL2434896", "about": "“Carbonic anhydrase inhibitors. Synthesis of heterocyclic 4-substituted pyridine-3-sulfonamide derivatives and their inhibition of the human cytosolic isozymes I and II and transmembrane tumor-associated isozymes IX and XII” (Eur J Med Chem, 2013)", "key": {"[1]": {"tested_on": "Malme-3M", "assay": "Growth inhibition of human MALME-3M cells at 10 uM after 48 hrs by sulforhodamine B assay", "format": "functional"}, "[2]": {"tested_on": "LOX IMVI", "assay": "Growth inhibition of human LOXIMVI cells at 10 uM after 48 hrs by sulforhodamine B assay", "format": "functional", "conditions": "read-out: GI"}, "[3]": {"tested_on": "U-251", "assay": "Growth inhibition of human U251 cells at 10 uM after 48 hrs by sulforhodamine B assay", "format": "functional", "conditions": "U-251, 48 h, read-out: GI"}, "[4]": {"tested_on": "SNB-75", "assay": "Growth inhibition of human SNB75 cells at 10 uM after 48 hrs by sulforhodamine B assay", "format": "functional", "conditions": "SNB-75, 48 h, read-out: GI"}, "[5]": {"tested_on": "KM12", "assay": "Growth inhibition of human KM12 cells at 10 uM after 48 hrs by sulforhodamine B assay", "format": "functional"}, "[6]": {"tested_on": "SW-620", "assay": "Growth inhibition of human SW620 cells at 10 uM after 48 hrs by sulforhodamine B assay", "format": "functional"}, "[7]": {"tested_on": "HT-29", "assay": "Growth inhibition of human HT-29 cells at 10 uM after 48 hrs by sulforhodamine B assay", "format": "functional", "conditions": "HT-29, 48 h, read-out: GI"}, "[8]": {"tested_on": "HCT-15", "assay": "Growth inhibition of human HCT15 cells at 10 uM after 48 hrs by sulforhodamine B assay", "format": "functional"}, "[9]": {"tested_on": "HCT-116", "assay": "Growth inhibition of human HCT116 cells at 10 uM after 48 hrs by sulforhodamine B assay", "format": "functional"}, "[10]": {"tested_on": "COLO 205", "assay": "Growth inhibition of human COLO205 cells at 10 uM after 48 hrs by sulforhodamine B assay", "format": "functional"}, "[11]": {"tested_on": "NCI-H522", "assay": "Growth inhibition of human NCI-H522 cells at 10 uM after 48 hrs by sulforhodamine B assay", "format": "functional"}, "[12]": {"tested_on": "NCI-H322M", "assay": "Growth inhibition of human NCI-H322M cells at 10 uM after 48 hrs by sulforhodamine B assay", "format": "functional"}, "[13]": {"tested_on": "NCI-H23", "assay": "Growth inhibition of human NCI-H23 cells at 10 uM after 48 hrs by sulforhodamine B assay", "format": "functional"}, "[14]": {"tested_on": "HOP-92", "assay": "Growth inhibition of human HOP92 cells at 10 uM after 48 hrs by sulforhodamine B assay", "format": "functional"}, "[15]": {"tested_on": "HOP-62", "assay": "Growth inhibition of human HOP62 cells at 10 uM after 48 hrs by sulforhodamine B assay", "format": "functional", "conditions": "HOP-62, 48 h, read-out: GI"}, "[16]": {"tested_on": "SR", "assay": "Growth inhibition of human SR cells at 10 uM after 48 hrs by sulforhodamine B assay", "format": "functional", "conditions": "read-out: GI"}, "[17]": {"tested_on": "RPMI-8226", "assay": "Growth inhibition of human RPMI8226 cells at 10 uM after 48 hrs by sulforhodamine B assay", "format": "functional", "conditions": "RPMI-8226, 48 h, read-out: GI"}, "[18]": {"tested_on": "MOLT-4", "assay": "Growth inhibition of human MOLT4 cells at 10 uM after 48 hrs by sulforhodamine B assay", "format": "functional", "conditions": "MOLT-4, 48 h, read-out: GI"}, "[19]": {"tested_on": "K562", "assay": "Growth inhibition of human K562 cells at 10 uM after 48 hrs by sulforhodamine B assay", "format": "functional", "conditions": "K562, 48 h, read-out: GI"}, "[20]": {"tested_on": "CCRF-CEM", "assay": "Growth inhibition of human CCRF-CEM cells at 10 uM after 48 hrs by sulforhodamine B assay", "format": "functional", "conditions": "read-out: GI"}, "[21]": {"tested_on": "MDA-MB-468", "assay": "Growth inhibition of human MDA-MB-468 cells at 10 uM after 48 hrs by sulforhodamine B assay", "format": "functional", "conditions": "MDA-MB-468, 48 h, read-out: GI"}, "[22]": {"tested_on": "T47D", "assay": "Growth inhibition of human T47D cells at 10 uM after 48 hrs by sulforhodamine B assay", "format": "functional", "conditions": "read-out: GI"}, "[23]": {"tested_on": "BT-549", "assay": "Growth inhibition of human BT549 cells at 10 uM after 48 hrs by sulforhodamine B assay", "format": "functional"}, "[24]": {"tested_on": "Hs-578T", "assay": "Growth inhibition of human Hs 578T cells at 10 uM after 48 hrs by sulforhodamine B assay", "format": "functional"}, "[25]": {"tested_on": "MDA-MB-231", "assay": "Growth inhibition of human MDA-MB-231 cells at 10 uM after 48 hrs by sulforhodamine B assay", "format": "functional"}, "[26]": {"tested_on": "MCF7", "assay": "Growth inhibition of human MCF7 cells at 10 uM after 48 hrs by sulforhodamine B assay", "format": "functional", "conditions": "MCF7, 48 h, read-out: GI"}, "[27]": {"tested_on": "DU-145", "assay": "Growth inhibition of human DU145 cells at 10 uM after 48 hrs by sulforhodamine B assay", "format": "functional"}, "[28]": {"tested_on": "PC-3", "assay": "Growth inhibition of human PC3 cells at 10 uM after 48 hrs by sulforhodamine B assay", "format": "functional", "conditions": "PC-3, 48 h, read-out: GI"}, "[29]": {"tested_on": "SN12C", "assay": "Growth inhibition of human SN12C cells at 10 uM after 48 hrs by sulforhodamine B assay", "format": "functional", "conditions": "read-out: GI"}, "[30]": {"tested_on": "RXF 393", "assay": "Growth inhibition of human RXF393 cells at 10 uM after 48 hrs by sulforhodamine B assay", "format": "functional"}, "[31]": {"tested_on": "ACHN", "assay": "Growth inhibition of human ACHN cells at 10 uM after 48 hrs by sulforhodamine B assay", "format": "functional"}, "[32]": {"tested_on": "A498", "assay": "Growth inhibition of human A498 cells at 10 uM after 48 hrs by sulforhodamine B assay", "format": "functional"}, "[33]": {"tested_on": "786-0", "assay": "Growth inhibition of human 786-0 cells at 10 uM after 48 hrs by sulforhodamine B assay", "format": "functional", "conditions": "786-0, 48 h, read-out: GI"}, "[34]": {"tested_on": "OVCAR-8", "assay": "Growth inhibition of human OVCAR8 cells at 10 uM after 48 hrs by sulforhodamine B assay", "format": "functional"}, "[35]": {"tested_on": "OVCAR-5", "assay": "Growth inhibition of human OVCAR5 cells at 10 uM after 48 hrs by sulforhodamine B assay", "format": "functional", "conditions": "OVCAR-5, 48 h, read-out: GI"}, "[36]": {"tested_on": "OVCAR-4", "assay": "Growth inhibition of human OVCAR4 cells at 10 uM after 48 hrs by sulforhodamine B assay", "format": "functional", "conditions": "OVCAR-4, 48 h, read-out: GI"}, "[37]": {"tested_on": "OVCAR-3", "assay": "Growth inhibition of human OVCAR3 cells at 10 uM after 48 hrs by sulforhodamine B assay", "format": "functional"}, "[38]": {"tested_on": "IGROV-1", "assay": "Growth inhibition of human IGROV1 cells at 10 uM after 48 hrs by sulforhodamine B assay", "format": "functional"}, "[39]": {"tested_on": "UACC-62", "assay": "Growth inhibition of human UACC62 cells at 10 uM after 48 hrs by sulforhodamine B assay", "format": "functional", "conditions": "UACC-62, 48 h, read-out: GI"}, "[40]": {"tested_on": "SK-MEL-5", "assay": "Growth inhibition of human SK-MEL-5 cells at 10 uM after 48 hrs by sulforhodamine B assay", "format": "functional"}, "[41]": {"tested_on": "SK-MEL-28", "assay": "Growth inhibition of human SK-MEL-28 cells at 10 uM after 48 hrs by sulforhodamine B assay", "format": "functional, cell-based"}, "[42]": {"tested_on": "SK-MEL-2", "assay": "Growth inhibition of human SK-MEL-2 cells at 10 uM after 48 hrs by sulforhodamine B assay", "format": "functional", "conditions": "SK-MEL-2, 48 h, read-out: GI"}, "[43]": {"tested_on": "MDA-MB-435", "assay": "Growth inhibition of human MDA-MB-435 cells at 10 uM after 48 hrs by sulforhodamine B assay", "format": "functional", "conditions": "MDA-MB-435, 48 h, read-out: GI"}, "[44]": {"tested_on": "M14", "assay": "Growth inhibition of human M14 cells at 10 uM after 48 hrs by sulforhodamine B assay", "format": "functional"}}, "note": "Active and inactive are the calls of the source. No cut-off for these calls is given here.", "data": [{"smiles": "COc1ccccc1N1CCN(c2ccncc2S(N)(=O)=O)CC1", "values": [{"measurement": "growth inhibition (GI)", "setting": "[1]", "result": "inactive"}, {"measurement": "inhibition of growth at 10 µM", "setting": "[2]", "result": 2, "unit": "%"}, {"measurement": "inhibition of growth at 10 µM", "setting": "[3]", "result": 1, "unit": "%"}, {"measurement": "inhibition of growth at 10 µM", "setting": "[4]", "result": 10, "unit": "%"}, {"measurement": "growth inhibition (GI)", "setting": "[5]", "result": "inactive"}, {"measurement": "growth inhibition (GI)", "setting": "[6]", "result": "inactive"}, {"measurement": "inhibition of growth at 10 µM", "setting": "[7]", "result": 4, "unit": "%"}, {"measurement": "growth inhibition (GI)", "setting": "[8]", "result": "inactive"}, {"measurement": "growth inhibition (GI)", "setting": "[9]", "result": "inactive"}, {"measurement": "growth inhibition (GI)", "setting": "[10]", "result": "inactive"}, {"measurement": "growth inhibition (GI)", "setting": "[11]", "result": "inactive"}, {"measurement": "growth inhibition (GI)", "setting": "[12]", "result": "inactive"}, {"measurement": "growth inhibition (GI)", "setting": "[13]", "result": "inactive"}, {"measurement": "growth inhibition (GI)", "setting": "[14]", "result": "inactive"}, {"measurement": "inhibition of growth at 10 µM", "setting": "[15]", "result": 2, "unit": "%"}, {"measurement": "inhibition of growth at 10 µM", "setting": "[16]", "result": 17, "unit": "%"}, {"measurement": "inhibition of growth at 10 µM", "setting": "[17]", "result": 3, "unit": "%"}, {"measurement": "inhibition of growth at 10 µM", "setting": "[18]", "result": 20, "unit": "%"}, {"measurement": "inhibition of growth at 10 µM", "setting": "[19]", "result": 9, "unit": "%"}, {"measurement": "inhibition of growth at 10 µM", "setting": "[20]", "result": 7, "unit": "%"}, {"measurement": "inhibition of growth at 10 µM", "setting": "[21]", "result": 2, "unit": "%"}, {"measurement": "inhibition of growth at 10 µM", "setting": "[22]", "result": 2, "unit": "%"}, {"measurement": "growth inhibition (GI)", "setting": "[23]", "result": "inactive"}, {"measurement": "growth inhibition (GI)", "setting": "[24]", "result": "inactive"}, {"measurement": "growth inhibition (GI)", "setting": "[25]", "result": "inactive"}, {"measurement": "inhibition of growth at 10 µM", "setting": "[26]", "result": 3, "unit": "%"}, {"measurement": "growth inhibition (GI)", "setting": "[27]", "result": "inactive"}, {"measurement": "inhibition of growth at 10 µM", "setting": "[28]", "result": 10, "unit": "%"}, {"measurement": "inhibition of growth at 10 µM", "setting": "[29]", "result": 11, "unit": "%"}, {"measurement": "growth inhibition (GI)", "setting": "[30]", "result": "inactive"}, {"measurement": "growth inhibition (GI)", "setting": "[31]", "result": "inactive"}, {"measurement": "growth inhibition (GI)", "setting": "[32]", "result": "inactive"}, {"measurement": "inhibition of growth at 10 µM", "setting": "[33]", "result": 3, "unit": "%"}, {"measurement": "growth inhibition (GI)", "setting": "[34]", "result": "inactive"}, {"measurement": "inhibition of growth at 10 µM", "setting": "[35]", "result": 2, "unit": "%"}, {"measurement": "inhibition of growth at 10 µM", "setting": "[36]", "result": 2, "unit": "%"}, {"measurement": "growth inhibition (GI)", "setting": "[37]", "result": "inactive"}, {"measurement": "growth inhibition (GI)", "setting": "[38]", "result": "inactive"}, {"measurement": "inhibition of growth at 10 µM", "setting": "[39]", "result": 3, "unit": "%"}, {"measurement": "growth inhibition (GI)", "setting": "[40]", "result": "inactive"}, {"measurement": "growth inhibition (GI)", "setting": "[41]", "result": "inactive"}, {"measurement": "inhibition of growth at 10 µM", "setting": "[42]", "result": 5, "unit": "%"}, {"measurement": "inhibition of growth at 10 µM", "setting": "[43]", "result": 2, "unit": "%"}, {"measurement": "growth inhibition (GI)", "setting": "[44]", "result": "inactive"}]}]}
